From the supplement of paper PMC10307832

How the values were obtained:
Assay in all cases: relative viability (nuclei count vs DMSO), 5 days (fraction); higher = more cells survive
[1] = compound: CC(=O)Nc1cccc(-n2c(=O)n(C3CC3)c(=O)c3c(Nc4ccc(I)cc4F)n(C)c(=O)c(C)c32)c1 [Trametinib] + COc1cccc2cc(-c3nc([C@H]4CC[C@H](C(=O)O)CC4)n4ncnc(N)c34)[nH]c12 [OSI-027] (partner 0.5 µM)
Method in brief: (§1)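 Medians of duplicate plates are given as relative viability. That measure is the nuclei count in treated wells divided by the count in vehicle wells. Counts were taken on 4× images of lung cancer cell lines in 1536-well plates, 5 days after pin-tool dosing the day after seeding with one drug alone or a fixed anchor-drug dose plus five library-drug doses (not always all listed) in √10 steps.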

[2] = compound: CN1C=C(C2=CC=CC=C21)/C=C\3/C4=C(C=CC=N4)NC3=O + Cc1nc(Nc2ncc(C(=O)Nc3c(C)cccc3Cl)s2)cc(N2CCN(CCO)CC2)n1 [Dasatinib] (partner 0.075 µM)
Method in brief: as §1

[3] = compound: CC(=O)Nc1cccc(-n2c(=O)n(C3CC3)c(=O)c3c(Nc4ccc(I)cc4F)n(C)c(=O)c(C)c32)c1 [Trametinib] + NC(=O)Nc1cc(-c2cccc(F)c2)sc1C(=O)N[C@H]1CCCNC1 [AZD7762] (partner 0.2 µM)
Method in brief: as §1

[4] = compound: CN1C=C(C2=CC=CC=C21)/C=C\3/C4=C(C=CC=N4)NC3=O + NC(=O)Nc1cc(-c2cccc(F)c2)sc1C(=O)N[C@H]1CCCNC1 [AZD7762] (partner 0.2 µM)
Method in brief: as §1

| Cell Line | relative viability ([1]; first compound 0.0025 µM) | relative viability ([1]; first compound 0.007906 µM) | relative viability ([1]; first compound 0.025 µM) | relative viability ([1]; first compound 0.07906 µM) | relative viability ([1]; first compound 0.25 µM) | relative viability ([2]; first compound 0.02 µM) | relative viability ([2]; first compound 0.06325 µM) | relative viability ([2]; first compound 0.6325 µM) | relative viability ([2]; first compound 2 µM) | relative viability ([3]; first compound 0.0025 µM) | relative viability ([3]; first compound 0.007906 µM) | relative viability ([3]; first compound 0.025 µM) | relative viability ([3]; first compound 0.07906 µM) | relative viability ([3]; first compound 0.25 µM) | relative viability ([4]; first compound 0.02 µM) | relative viability ([4]; first compound 0.6325 µM) | relative viability ([4]; first compound 2 µM) | relative viability ([2]; first compound 0.2 µM) | relative viability ([4]; first compound 0.06325 µM) | relative viability ([4]; first compound 0.2 µM) |
| --- | --- | --- | --- | --- | --- | --- | --- | --- | --- | --- | --- | --- | --- | --- | --- | --- | --- | --- | --- | --- |
| SW 900 | 0.629 | 0.539 | 0.424 | 0.428 | 0.167 | 0.495 | 0.585 | 0.537 | 0.481 | 0.666 | 0.518 | 0.575 | 0.47 | 0.268 | 0.512 | 0.555 | 0.591 | – | – | – |
| PC-3 [JPC-3] | 0.803 | 0.635 | 0.675 | 0.595 | 0.581 | 1.04 | 0.888 | 0.866 | 1.02 | 0.714 | 0.501 | 0.506 | – | 0.568 | 0.811 | 0.819 | 0.701 | 1.02 | 0.801 | 0.752 |
| NCI-H1703 | – | – | – | – | – | – | – | – | – | 0.141 | 0.126 | 0.144 | 0.101 | 0.112 | 0.107 | 0.112 | 0.14 | – | 0.138 | 0.118 |
| EPLC-272H | 0.319 | 0.285 | 0.192 | 0.129 | 0.183 | 0.344 | 0.41 | – | 0.355 | 0.223 | 0.242 | 0.175 | 0.17 | 0.225 | 0.321 | 0.132 | 0.174 | 0.237 | 0.244 | – |
| NCI-H1792 | 0.565 | 0.62 | 0.745 | 0.618 | 0.51 | 0.816 | 0.93 | – | 0.66 | 0.682 | 0.552 | 0.24 | 0.26 | 0.133 | 0.943 | 0.518 | 0.693 | 0.74 | 0.702 | 0.376 |
| NCI-H2085 | 0.469 | 0.352 | 0.281 | 0.329 | 0.298 | 0.248 | 0.273 | 0.227 | 0.204 | 0.81 | 0.752 | 0.391 | 0.518 | 0.541 | 0.97 | 0.956 | 0.947 | 0.195 | 1.03 | 0.968 |
| LK-2 | 0.197 | 0.205 | 0.164 | 0.18 | 0.186 | – | – | 0.266 | 0.256 | 0.347 | 0.544 | 0.288 | 0.259 | 0.12 | 0.173 | 0.32 | 0.271 | – | 0.278 | 0.162 |
| NCI-H1395 | 0.693 | 0.617 | 0.552 | 0.468 | 0.404 | 0.399 | 0.425 | 0.422 | 0.392 | 0.399 | 0.377 | 0.41 | 0.361 | 0.367 | 0.385 | 0.407 | 0.403 | 0.371 | 0.374 | 0.364 |
| ABC-1 | 0.403 | 0.439 | 0.28 | 0.266 | 0.225 | 0.484 | 0.424 | 0.562 | 0.56 | 0.801 | 0.756 | 0.562 | 0.555 | 0.915 | 0.889 | 0.708 | 0.874 | 0.53 | – | – |
| RERF-LC-KJ | 0.493 | 0.471 | 0.414 | 0.459 | 0.372 | 0.898 | 0.878 | 0.68 | 0.679 | 0.853 | 0.909 | 0.674 | 0.807 | 0.814 | 1.03 | 1.01 | 0.928 | 0.737 | 0.96 | 0.805 |
| LU99A | 0.301 | 0.294 | 0.287 | 0.326 | 0.297 | 0.67 | 0.457 | 0.669 | 0.612 | 0.365 | 0.353 | 0.2 | 0.214 | 0.179 | 0.372 | 0.331 | 0.377 | 0.437 | 0.435 | 0.345 |
| NCI-H650 | 0.645 | 0.765 | 0.619 | 0.714 | 0.567 | 0.519 | 0.494 | 0.415 | 0.39 | 1.06 | 1.15 | 1.03 | 0.614 | 0.655 | 1.05 | 1.2 | 0.965 | – | 0.939 | – |
| NCI-H2347 | 0.394 | 0.216 | 0.185 | 0.226 | 0.167 | – | 0.296 | 0.302 | 0.938 | 0.642 | 0.41 | 0.296 | 0.29 | 0.296 | 0.778 | 0.79 | 0.83 | 0.222 | 0.728 | 0.56 |
| HARA | 0.575 | 0.359 | 0.23 | 0.328 | 0.0752 | 0.313 | 0.265 | 0.254 | 0.244 | 0.447 | 0.394 | 0.365 | 0.276 | 0.215 | 0.197 | 0.358 | 0.345 | – | 0.368 | – |
| NCI-H2228 | 0.498 | 0.427 | 0.222 | 0.237 | 0.192 | 0.524 | 0.458 | – | 0.485 | – | – | – | – | – | – | – | – | – | – | – |
